Measurements published in US10479780B2, “Aminopyrazole derivatives” (Chugai Seiyaku Kabushiki Kaisha, priority 2015, dated 2019).
Like-named read-outs stand apart in the source and are kept apart here.

Legend:
Type in all cases: biochemical
[1] = molecular target: T1, human Lck enzyme (Homo sapiens, UniProt P06239); assay: Lck enzyme inhibitory activity (time-resolved fluorometry, biotinylated peptide phosphorylation); conditions: read-out: LCK_IC50
T1 construct: purchased Carna Biosciences, Inc. 08-170
T1 sequence (P06239 whole entry): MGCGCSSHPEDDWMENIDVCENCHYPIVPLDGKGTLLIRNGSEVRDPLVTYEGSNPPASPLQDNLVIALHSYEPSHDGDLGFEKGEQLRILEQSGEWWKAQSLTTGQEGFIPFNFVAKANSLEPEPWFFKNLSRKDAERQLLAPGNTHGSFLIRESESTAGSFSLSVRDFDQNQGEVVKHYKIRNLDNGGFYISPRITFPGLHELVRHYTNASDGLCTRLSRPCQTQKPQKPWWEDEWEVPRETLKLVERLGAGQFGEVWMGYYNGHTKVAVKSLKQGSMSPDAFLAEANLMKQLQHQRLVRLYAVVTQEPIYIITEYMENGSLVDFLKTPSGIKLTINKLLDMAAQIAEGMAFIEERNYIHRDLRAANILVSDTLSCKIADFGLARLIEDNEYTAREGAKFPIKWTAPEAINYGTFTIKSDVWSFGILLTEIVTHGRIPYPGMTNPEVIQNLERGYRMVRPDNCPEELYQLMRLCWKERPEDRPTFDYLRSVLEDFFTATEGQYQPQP
Summary of the method: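 Readout pairs a europium cryptate-labelled anti-phosphotyrosine antibody with XL665-streptavidin, measured by time-resolved fluorescence. IC50 derived from percent inhibition against untreated controls.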

[2] = molecular target: T2, human Src enzyme (Homo sapiens, UniProt P12931); assay: Src enzyme inhibitory activity (time-resolved fluorometry, biotinylated peptide phosphorylation); conditions: read-out: SRC_IC50
T2 construct: purchased Carna Biosciences, Inc. 08-173
T2 sequence (P12931 whole entry): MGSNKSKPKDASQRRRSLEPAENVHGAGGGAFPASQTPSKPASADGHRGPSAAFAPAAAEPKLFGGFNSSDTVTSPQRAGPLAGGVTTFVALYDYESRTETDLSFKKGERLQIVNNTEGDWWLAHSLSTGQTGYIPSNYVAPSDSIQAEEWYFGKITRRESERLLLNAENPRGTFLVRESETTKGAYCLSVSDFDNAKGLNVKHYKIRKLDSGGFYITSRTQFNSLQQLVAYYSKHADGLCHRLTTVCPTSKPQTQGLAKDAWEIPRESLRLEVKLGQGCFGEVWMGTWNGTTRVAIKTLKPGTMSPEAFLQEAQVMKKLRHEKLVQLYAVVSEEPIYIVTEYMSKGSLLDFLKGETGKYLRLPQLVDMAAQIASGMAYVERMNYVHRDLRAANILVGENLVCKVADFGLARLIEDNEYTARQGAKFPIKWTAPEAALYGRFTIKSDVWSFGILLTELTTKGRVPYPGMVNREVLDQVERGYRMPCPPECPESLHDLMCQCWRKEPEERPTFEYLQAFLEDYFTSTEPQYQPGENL
Summary of the method: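 Compounds were tested for blocking tyrosine phosphorylation of a biotinylated peptide substrate by recombinant human Src. Phosphorylated product was quantified by time-resolved fluorometry using europium cryptate and XL665 conjugates, and IC50 was calculated against the compound-free control.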

[3] = molecular target: T3, human Yes1 enzyme (Homo sapiens, UniProt P07947); assay: Yes1 enzyme inhibitory activity (time-resolved fluorometry, biotinylated peptide phosphorylation); conditions: read-out: YES_IC50
T3 construct: made in house
T3 sequence (P07947 whole entry): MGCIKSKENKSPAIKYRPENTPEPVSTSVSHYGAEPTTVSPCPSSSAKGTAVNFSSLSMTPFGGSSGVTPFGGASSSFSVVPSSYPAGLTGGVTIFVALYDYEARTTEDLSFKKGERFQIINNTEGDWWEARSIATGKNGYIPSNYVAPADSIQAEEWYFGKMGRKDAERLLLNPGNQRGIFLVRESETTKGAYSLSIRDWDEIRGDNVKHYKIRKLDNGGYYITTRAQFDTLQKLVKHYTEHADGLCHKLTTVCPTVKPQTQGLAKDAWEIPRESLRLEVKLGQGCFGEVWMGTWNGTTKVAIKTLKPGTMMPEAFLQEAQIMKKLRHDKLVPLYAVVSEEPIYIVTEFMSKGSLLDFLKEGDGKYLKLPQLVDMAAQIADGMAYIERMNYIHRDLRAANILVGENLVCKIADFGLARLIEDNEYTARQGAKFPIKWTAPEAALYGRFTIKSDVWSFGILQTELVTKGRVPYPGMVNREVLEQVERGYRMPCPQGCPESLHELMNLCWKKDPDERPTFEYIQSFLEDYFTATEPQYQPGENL
Summary of the method: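 Inhibition was expressed against a compound-free control to give IC50, using TR-FRET read-out (Eu-cryptate anti-pTyr antibody, streptavidin-XL665).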

[4] = biotinylated peptide phosphorylation

Structure (SMILES)	IC50 [1] [µM]	IC50 [2] [µM]	IC50 [3] [µM]	IC50 [1, 4] [µM]	IC50 [2, 4] [µM]	IC50 [3, 4] [µM]
Cc1cc2cc(C(=O)c3cnn(-c4ccc(Oc5ccccc5F)cc4C)c3N)[nH]c2cc1NS(=O)(=O)C1CCOCC1 [Example 5-1-347, N-[2-[5-amino-1-[4-(2-fluorophenoxy)-2-methylphenyl]pyrazole-4-carbonyl]-5-methyl-1H-indol-6-yl]oxane-4-sulfonamide]	0.011	0.046	0.00087			
COc1cc2cc(C(=O)c3cnn(-c4c(C)cc(Oc5ccccc5F)cc4F)c3N)[nH]c2cc1NS(=O)(=O)CC(=O)N1CCOCC1 [Example 4-10-013, N-[2-[5-amino-1-[2-fluoro-4-(2-fluorophenoxy)-6-methylphenyl]pyrazole-4-carbonyl]-5-methoxy-1H-indol-6-yl]-2-morpholin-4-yl-2-oxoethanesulfonamide]				0.011	0.029	0.0012
COc1cc2cc(C(=O)c3cnn(-c4cnc(Oc5ccccc5F)cc4C)c3N)[nH]c2cc1NS(=O)(=O)CCCF [Example 4-13-001, N-{2-{5-amino-1-[6-(2-fluorophenoxy)-4-methylpyridin-3-yl]pyrazole-4-carbonyl}-5-methoxy-1H-indol-6-yl}-3-fluoropropane-1-sulfonamide]				0.026	0.076	0.0024
Cc1cc(Oc2cccc(F)c2)ncc1-n1ncc(C(=O)c2cc3cc(F)c(NS(C)(=O)=O)cc3[nH]2)c1N [Example 4-2-038, N-[2-[5-amino-1-[6-(3-fluorophenoxy)-4-methylpyridin-3-yl]pyrazole-4-carbonyl]-5-fluoro-1H-indol-6-yl]methanesulfonamide]				0.04	0.13	0.0019
Cc1cc(Oc2cccc(F)c2F)ccc1-n1ncc(C(=O)c2cc3cc(F)c(NS(=O)(=O)C4CC4)cc3[nH]2)c1N [Example 4-2-041, N-[2-[5-amino-1-[4-(2,3-difluorophenoxy)-2-methylphenyl]pyrazole-4-carbonyl]-5-fluoro-1H-indol-6-yl]cyclopropanesulfonamide]				0.038	0.084	0.00079
Cc1cc(Oc2c(F)cccc2F)ncc1-n1ncc(C(=O)c2cc3cc(F)c(N4C(=O)NC5(CCC5)C4=O)cc3[nH]2)c1N [Example 5-1-312, 7-[2-[5-amino-1-[6-(2,6-difluorophenoxy)-4-methylpyridin-3-yl]pyrazole-4-carbonyl]-5-fluoro-1H-indol-6-yl]-5,7-diazaspiro[3.4]octane-6,8-dione]	0.01	0.16	0.0035			
Cc1cc(Oc2ccccc2F)ccc1-n1ncc(C(=O)c2cc3cc(F)c(N4CCN(S(C)(=O)=O)CC4)cc3[nH]2)c1N [Example 5-1-125, [5-amino-1-[4-(2-fluorophenoxy)-2-methylphenyl]pyrazol-4-yl]-[5-fluoro-6-(4-methylsulfonylpiperazin-1-yl)-1H-indol-2-yl] methanone]	0.0092	0.033	0.00071			
Cc1cccc(S(=O)(=O)Nc2cc3[nH]c(C(=O)c4cnn(-c5cnc(Oc6ccccc6F)cc5C)c4N)cc3cc2C)n1 [Example 5-1-507, N-[2-[5-amino-1-[6-(2-fluorophenoxy)-4-methylpyridin-3-yl]pyrazole-4-carbonyl]-5-methyl-1H-indol-6-yl]-6-methylpyridine-2-sulfonamide]				0.092	0.48	0.0028
Cc1cc2cc(C(=O)c3cnn(-c4cnc(Oc5ccccc5F)cc4C)c3N)[nH]c2cc1NS(=O)(=O)c1cc(F)cc(F)c1 [Example 5-1-460, N-[2-[5-amino-1-[6-(2-fluorophenoxy)-4-methylpyridin-3-yl]pyrazole-4-carbonyl]-5-methyl-1H-indol-6-yl]-3,5-difluorobenzenesulfonamide]				0.2	0.77	0.0045
Cc1cc(Oc2ccccc2F)cc(F)c1-n1ncc(C(=O)c2cc3cc(OC(F)F)c(NS(C)(=O)=O)cc3[nH]2)c1N [Example 5-1-076, N-[2-[5-amino-1-[2-fluoro-4-(2-fluorophenoxy)-6-methylphenyl]pyrazole-4-carbonyl]-5-(difluoromethoxy)-1H-indol-6-yl] methanesulfonamine]	0.016	0.12	0.0028			
COc1cc2cc(C(=O)c3cnn(-c4c(C)cc(Oc5ccccc5F)cc4F)c3N)[nH]c2cc1N1CCCS1(=O)=O [Example 4-2-120, [5-amino-1-[2-fluoro-4-(2-fluorophenoxy)-6-methylphenyl]pyrazol-4-yl]-[6-(1,1-dioxo-1,2-thiazolidin-2-yl)-5-methoxy-1H-indol-2-yl]methanone]				0.004	0.028	0.001
Cc1cc(-n2ncc(C(=O)c3cc4cc(OC[C@H](O)CO)c(NS(C)(=O)=O)cc4[nH]3)c2N)ccc1Oc1ccccc1F [Example 5-1-242, (R)—N-(2-(5-amino-1-(4-(2-fluorophenoxy)-3-methylphenyl)-1H-pyrazole-4-carbonyl)-5-(2,3-dihydroxypropoxy)-1H-indol-6-yl)methanesulfonamide]	0.16	0.5	0.0019			
Cc1cc(Oc2c(F)cccc2F)ncc1-n1ncc(C(=O)c2cc3cc(F)c(NS(=O)(=O)c4cccc(C#N)n4)cc3[nH]2)c1N [Example 5-1-538, N-[2-[5-amino-1-[6-(2,6-difluorophenoxy)-4-methylpyridin-3-yl]pyrazole-4-carbonyl]-5-fluoro-1H-indol-6-yl]-6-cyanopyridine-2-sulfonamide]				0.14	0.68	0.0096
Cc1cc(Oc2ccccc2F)ncc1-n1ncc(C(=O)c2cc3cc(OCC(F)F)c(N4CCN(S(C)(=O)=O)CC4)cc3[nH]2)c1N [Example 4-23-007, [5-amino-1-[6-(2-fluorophenoxy)-4-methylpyridin-3-yl]pyrazol-4-yl]-[5-(2,2-difluoroethoxy)-6-(4-methylsulfonylpiperazin-1-yl)-1H-indol-2-yl]methanone]				0.0055	0.016	0.0013
Cc1cc2cc(C(=O)c3cnn(-c4cnc(Oc5c(F)cccc5F)cc4C)c3N)[nH]c2cc1NS(=O)(=O)c1cccc(F)n1 [Example 5-1-516, N-[2-[5-amino-1-[6-(2,6-difluorophenoxy)-4-methylpyridin-3-yl]pyrazole-4-carbonyl]-5-methyl-1H-indol-6-yl]-6-fluoropyridine-2-sulfonamide]				0.091	0.54	0.0051
Cc1cc(Oc2ccccc2F)cc(F)c1-n1ncc(C(=O)c2cc3cc(OCC(F)F)c(NS(=O)(=O)CCCF)cc3[nH]2)c1N [Example 4-24-026, N-[2-[5-amino-1-[2-fluoro-4-(2-fluorophenoxy)-6-methylphenyl]pyrazole-4-carbonyl]-5-(2,2-difluoroethoxy)-1H-indol-6-yl]-3-fluoropropane-1-sulfonamide]				0.021	0.05	0.0017
Cc1cc(Oc2c(F)cccc2F)ncc1-n1ncc(C(=O)c2cc3cc(F)c(N4C(=O)NC5(CCCC5)C4=O)cc3[nH]2)c1N [Example 5-1-344, 3-[2-[5-amino-1-[6-(2,6-difluorophenoxy)-4-methylpyridin-3-yl]pyrazole-4-carbonyl]-5-fluoro-1H-indol-6-yl]-1,3-diazaspiro[4.4]nonane-2,4-dione]	0.013	0.15	0.0047			
